We go through 16 compounds from patent publication US12371454B2, “Cyclic peptide compound having Kras inhibitory action” (priority 2019, dated 2025).

Starred links: 1 amine or outer side, 2 acyl side, 3 side chain; linkers in the order of their positions; H or OH if unused. Positions of bridges follow the written chain, without caps; N, C: chain ends. Non-standard residues stand in square brackets, D forms with d. Residues, ends and D or L forms follow the SMILES beside them. *: point of attachment. hPhe(3-Cl-4-CF3) = N[C@@H](CCc1ccc(C(F)(F)F)c(Cl)c1)C(=O)O; hPhe(3-OMe-4-CF3) = COc1cc(CC[C@H](N)C(=O)O)ccc1C(F)(F)F; X67 = O=C([C@H](CCc1cc(F)c(F)cc1F)N[*:1])[*:2]; NMeTyr(3-F) = CN[C@@H](Cc1ccc(O)c(F)c1)C(=O)O; NMePhe(4-Cl) = CN[C@@H](Cc1ccc(Cl)cc1)C(=O)O; NEtPhe(2-Cl) = CCN[C@@H](Cc1ccccc1Cl)C(=O)O; NMePhe(4-Me) = CN[C@@H](Cc1ccc(C)cc1)C(=O)O; NMedβ3hAla = C[C@H](CC(=O)[*:2])N(C)[*:1]; NMeAla(cPent) = CN[C@@H](CC1CCCC1)C(=O)O; NMeGly(cPent) = CN[C@H](C(=O)O)C1CCCC1; Phe(3-I) = N[C@@H](Cc1cccc(I)c1)C(=O)O; X70 = CC(C)(O)COCCN(CC(=O)[*:2])[*:1]; NMeCha = CN[C@@H](CC1CCCCC1)C(=O)O; NMeChg = CN[C@H](C(=O)O)C1CCCCC1; NMeF = CN[C@@H](Cc1ccccc1)C(=O)O; NMeI = CC[C@H](C)[C@H](NC)C(=O)O; NMeE = CN[C@@H](CCC(=O)O)C(=O)O; NMeD = CN[C@@H](CC(=O)O)C(=O)O; Benzyl(4-Cl) = Clc1ccc(C*)cc1; NMeL = CN[C@@H](CC(C)C)C(=O)O; NMeV = CN[C@H](C(=O)O)C(C)C; d(β3hA) = C[C@@H](N)CC(=O)O; NMeAbu = CC[C@H](NC)C(=O)O; Morpholide = C1CN(*)CCO1; NMeA = CN[C@@H](C)C(=O)O; NMeAib = CNC(C)(C)C(=O)O; Nle = CCCC[C@H](N)C(=O)O; Piperidide = C1CCN(*)CC1; Pyrrolidide = C1CCN(*)C1; Ac5c = NC1(C(=O)O)CCCC1; Aze = O=C(O)[C@@H]1CCN1; X76 = Clc1cccc(C*)c1; X27 = Clc1ccccc1C*; Sar = CNCC(=O)O

The term IC50 denotes the concentration that gives 50% inhibition.

In this test the target is T1, Kras and SOS1 (biotin-tagged human Kras loaded with GDP, His-tagged human SOS1) (Homo sapiens, UniProt P01116, G12D).
T1 construct: made in house; host or cells: E. coli (stated for Kras only)
T1 sequence (P01116 1-188 isoform P01116-2 G12D): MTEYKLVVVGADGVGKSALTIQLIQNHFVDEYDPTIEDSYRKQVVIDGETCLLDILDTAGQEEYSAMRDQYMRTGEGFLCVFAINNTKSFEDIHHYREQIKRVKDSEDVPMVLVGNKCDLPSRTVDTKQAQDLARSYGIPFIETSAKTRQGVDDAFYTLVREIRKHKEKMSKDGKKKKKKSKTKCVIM
Kind of test: Protein-protein interaction inhibition between Kras and SOS1 (KrasGl2D-SOS PPI) using AlphaScreen. It counts as binding. The following applies: AlphaScreen; biotin-tagged human Kras loaded with GDP, His-tagged human SOS1; read-out: KRAS G12D-SOS PPI IC50. Put shortly: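 Read-out is acceptor-bead light at 520-620 nm, arising when 680 nm-irradiated nickel donor beads pass singlet oxygen to streptavidin acceptors. The bead pair links His-tagged SOS1 with biotin-tagged, GDP-bound Kras from E. coli.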
Background: Bead proximity is the source of the signal in Alpha formats.
Regarding `CC[C@H](C)[C@@H]1NC(=O)[C@H](CC(C)C)N(C)C(=O)C[C@@H](C(=O)N(C)C)N(C)C(=O)[C@H]([C@@H](C)CC)N(C)C(=O)C2(CCCC2)NC(=O)CN(CCOCC(C)(C)O)C(=O)[C@H](CCc2ccc(C(F)(F)F)c(Cl)c2)NC(=O)CN(C)C(=O)[C@H](Cc2ccc(C)cc2)N(C)C(=O)[C@@H]2CCN2C(=O)[C@H](C)N(C)C1=O` [Compound 2034] ([NMeL]I[NMeA][Aze][NMePhe(4-Me)][Sar][hPhe(3-Cl-4-CF3)][X70][Ac5c][NMeI][NMeD]-NMe2; lactam N-11), the IC50 stood at 2 nM.

`CC[C@H](C)[C@@H]1NC(=O)[C@H](C)N(C)C(=O)C[C@@H](C(=O)N2CCCCC2)N(C)C(=O)[C@H](C2CCCCC2)N(C)C(=O)C2(CCCC2)NC(=O)[C@@H]2CCCN2C(=O)[C@H](COc2ccc(Cl)cc2)NC(=O)CN(C)C(=O)[C@H](CC2CCCCC2)N(C)C(=O)CN(C)C(=O)CN(C)C1=O` [Compound 2042, (3S,9S,18S,21S,25S,28S,34S)-3-[(4-chlorophenoxy)methyl]-28-cyclohexyl-9-(cyclohexylmethyl)-7,10,13,16,21,22,26,29-octamethyl-18-[(1S)-1-methylpropyl]-25-(piperidine-1-carbonyl)spiro[1,4,7,10,13,16,19,22,26,29,32-undecazabicyclo[32.3.0]heptatriacontane-31,1′-cyclopentane]-2,5,8,11,14,17,20,23,27,30,33-undecone]: the IC50 worked out at 70 nM.

As for `CC[C@H](C)[C@@H]1NC(=O)[C@H](C)N(C)C(=O)C[C@@H](C(=O)N2CCCCC2)N(C)C(=O)[C@H](C2CCCCC2)N(C)C(=O)C2(CCCC2)NC(=O)[C@@H]2CCCN2C(=O)[C@H](COCc2ccccc2Cl)NC(=O)CN(C)C(=O)[C@H](CC2CCCCC2)N(C)C(=O)CN(C)C(=O)CN(C)C1=O` [Compound 2043] ([NMeA]I[Sar][Sar][NMeCha][Sar]S(X27)P[Ac5c][NMeChg][NMeD]-Piperidide; lactam N-11), the half-maximal inhibitory concentration (IC50) was found to be 12 nM.

Turning to `CC[C@H](C)[C@@H]1NC(=O)[C@H](C)N(C)C(=O)C[C@@H](C(=O)N2CCCCC2)N(C)C(=O)[C@H](C2CCCCC2)N(C)C(=O)C2(CCCC2)NC(=O)[C@@H]2CCCN2C(=O)[C@H](COCc2ccc(Cl)cc2)NC(=O)CN(C)C(=O)[C@H](CC2CCCCC2)N(C)C(=O)CN(C)C(=O)CN(C)C1=O` [Compound 2044] ([NMeA]I[Sar][Sar][NMeCha][Sar]S(Benzyl(4-Cl))P[Ac5c][NMeChg][NMeD]-Piperidide; lactam N-11), the IC50 was 7.9 nM.

Take `CC[C@H](C)[C@@H]1NC(=O)[C@H](C)N(C)C(=O)C[C@@H](C(=O)N2CCCCC2)N(C)C(=O)[C@H](C2CCCCC2)N(C)C(=O)C2(CCCC2)NC(=O)[C@@H]2CCCN2C(=O)[C@H](COCc2cccc(Cl)c2)NC(=O)CN(C)C(=O)[C@H](CC2CCCCC2)N(C)C(=O)CN(C)C(=O)CN(C)C1=O` [Compound 2045] ([NMeA]I[Sar][Sar][NMeCha][Sar]S(X76)P[Ac5c][NMeChg][NMeD]-Piperidide; lactam N-11): the IC50 is 15 nM.

Consider `CC[C@H](C)[C@@H]1NC(=O)[C@H](CC(C)C)N(C)C(=O)C[C@@H](C(=O)N2CCCCC2)N(C)C(=O)[C@H](C2CCCC2)N(C)C(=O)C2(CCCC2)NC(=O)[C@@H]2CCCN2C(=O)[C@H](CCc2ccc(C(F)(F)F)c(OC)c2)NC(=O)CN(C)C(=O)[C@H](CC2CCCCC2)N(C)C(=O)[C@@H]2CCN2C(=O)[C@H](C)N(C)C1=O` [Compound 2080] ([NMeL]I[NMeA][Aze][NMeCha][Sar][hPhe(3-OMe-4-CF3)]P[Ac5c][NMeGly(cPent)][NMeD]-Piperidide; lactam N-11), for which the IC50 is 0.33 nM.

`CC[C@H](C)[C@@H]1NC(=O)[C@H](C)N(C)C(=O)C[C@@H](C)NC(=O)[C@H](CC(C)C)N(C)C(=O)[C@H](Cc2ccccc2)N(C)C(=O)[C@H](CC(C)C)NC(=O)[C@H](CCc2cc(F)c(F)cc2F)NC(=O)CN(C)C(=O)[C@H](Cc2ccc(Cl)cc2)N(C)C(=O)CN(C)C(=O)CN(C)C1=O` [Compound 2087] (cyclo(I[Sar][Sar][NMePhe(4-Cl)][Sar][X67]L[NMeF][NMeL][d(β3hA)][NMeA])): the IC50 was 130 nM.

Turning to `CCCC[C@@H]1NC(=O)[C@H](Cc2cccc(I)c2)NC(=O)CN(C)C(=O)[C@H](Cc2ccc(C)cc2)N(C)C(=O)CN(C)C(=O)CN(C)C(=O)[C@H]([C@@H](C)CC)NC(=O)[C@H](CC(C)C)N(C)C(=O)C[C@@H](C(=O)N2CCCCC2)N(C)C(=O)[C@H](CC(C)C)NC(=O)[C@H](CCC(=O)N(C)C)N(C)C1=O` [Compound 2100, 3-[(3S,6S,9S,12S,18S,27S,30S,34S)-9-butyl-12-[(3-iodophenyl)methyl]-3,30-diisobutyl-1,7,16,19,22,25,31-heptamethyl-27-[(1S)-1-methylpropyl]-2,5,8,11,14,17,20,23,26,29,32-undecaoxo-34-(piperidine-1-carbonyl)-18-(p-tolylmethyl)-1,4,7,10,13,16,19,22,25,28,31-undecazacyclotetratriacont-6-yl]-N,N-dimethyl-propanamide] ([NMeL]I[Sar][Sar][NMePhe(4-Me)][Sar][Phe(3-I)][Nle][NMeE](NMe2)L[NMeD]-Piperidide; lactam N-11), the IC50 came out at 15 nM.

On to `CC[C@H](C)[C@@H]1NC(=O)[C@H](CC(C)C)N(C)C(=O)C[C@@H](C(=O)N2CCOCC2)N(C)C(=O)[C@H](C2CCCC2)N(C)C(=O)C2(CCCC2)NC(=O)[C@H](CCC(=O)NC)N(C)C(=O)[C@H](CCc2ccc(C(F)(F)F)c(Cl)c2)NC(=O)CN(C)C(=O)[C@H](CC2CCCCC2)N(C)C(=O)[C@@H]2CCN2C(=O)[C@H](C)N(C)C1=O` [Compound 2111] ([NMeL]I[NMeA][Aze][NMeCha][Sar][hPhe(3-Cl-4-CF3)][NMeE](NHMe)[Ac5c][NMeGly(cPent)][NMeD]-Morpholide; lactam N-11), for which the IC50 came out at 8.2 nM.

`CC[C@H](C)[C@@H]1NC(=O)[C@H](C)N(C)C(=O)C[C@@H](C)N(C)C(=O)[C@H]([C@@H](C)CC)N(C)C(=O)C(C)(C)N(C)C(=O)[C@@H]2CCCN2C(=O)[C@H](CCc2ccc(C(F)(F)F)c(Cl)c2)NC(=O)CN(C)C(=O)[C@H](CC2CCCCC2)N(C)C(=O)[C@@H]2CCN2C(=O)[C@H](C)N(C)C1=O` [Compound 2153] (cyclo([Aze][NMeCha][Sar][hPhe(3-Cl-4-CF3)]P[NMeAib][NMeI][NMedβ3hAla][NMeA]I[NMeA])): the IC50 worked out at 6.9 nM.

As to `CC[C@H](C)[C@@H]1NC(=O)[C@H](C)N(C)C(=O)C[C@@H](C)N(C)C(=O)[C@H](CC)N(C)C(=O)C(C)(C)N(C)C(=O)[C@@H]2CCCN2C(=O)[C@H](CCc2ccc(C(F)(F)F)c(Cl)c2)NC(=O)CN(C)C(=O)[C@H](CC2CCCCC2)N(C)C(=O)[C@@H]2CCN2C(=O)[C@H](C)N(C)C1=O` [Compound 2154] (cyclo([Aze][NMeCha][Sar][hPhe(3-Cl-4-CF3)]P[NMeAib][NMeAbu][NMedβ3hAla][NMeA]I[NMeA])), the IC50 is 33 nM.

Turning to `CC[C@H](C)[C@@H]1NC(=O)[C@H](C)N(C)C(=O)C[C@@H](C)N(C)C(=O)[C@H](C2CCCC2)N(C)C(=O)C(C)(C)N(C)C(=O)[C@@H]2CCCN2C(=O)[C@H](CCc2ccc(C(F)(F)F)c(Cl)c2)NC(=O)CN(C)C(=O)[C@H](CC2CCCCC2)N(C)C(=O)[C@@H]2CCN2C(=O)[C@H](C)N(C)C1=O` [Compound 2156] (cyclo([Aze][NMeCha][Sar][hPhe(3-Cl-4-CF3)]P[NMeAib][NMeGly(cPent)][NMedβ3hAla][NMeA]I[NMeA])), the IC50 came out at 4.5 nM.

On to `CC[C@H](C)[C@@H]1NC(=O)[C@H](C)N(C)C(=O)C[C@@H](C)N(C)C(=O)[C@H](CC2CCCC2)N(C)C(=O)C(C)(C)N(C)C(=O)[C@@H]2CCCN2C(=O)[C@H](CCc2ccc(C(F)(F)F)c(Cl)c2)NC(=O)CN(C)C(=O)[C@H](CC2CCCCC2)N(C)C(=O)[C@@H]2CCN2C(=O)[C@H](C)N(C)C1=O` [Compound 2158] (cyclo([Aze][NMeCha][Sar][hPhe(3-Cl-4-CF3)]P[NMeAib][NMeAla(cPent)][NMedβ3hAla][NMeA]I[NMeA])), for which the IC50 amounted to 89 nM.

`CC[C@H](C)[C@@H]1NC(=O)[C@H](C)N(C)C(=O)C[C@@H](C)N(C)C(=O)[C@H](CC(C)C)N(C)C(=O)C(C)(C)N(C)C(=O)[C@@H]2CCCN2C(=O)[C@H](CCc2ccc(C(F)(F)F)c(Cl)c2)NC(=O)CN(C)C(=O)[C@H](CC2CCCCC2)N(C)C(=O)[C@@H]2CCN2C(=O)[C@H](C)N(C)C1=O` [Compound 2160] (cyclo([Aze][NMeCha][Sar][hPhe(3-Cl-4-CF3)]P[NMeAib][NMeL][NMedβ3hAla][NMeA]I[NMeA])): the IC50 amounted to 3.8 nM.

With `CC[C@H](C)[C@@H]1NC(=O)[C@H](C)N(C)C(=O)C[C@@H](C(=O)N2CCCC2)N(C)C(=O)[C@H](C(C)C)N(C)C(=O)C2(CCCC2)NC(=O)[C@H](Cc2ccccc2Cl)N(CC)C(=O)[C@H](CCc2ccc(C(F)(F)F)c(Cl)c2)NC(=O)CN(C)C(=O)[C@H](CC2CCCCC2)N(C)C(=O)CN(C)C(=O)CN(C)C1=O` [Compound 2162] ([NMeA]I[Sar][Sar][NMeCha][Sar][hPhe(3-Cl-4-CF3)][NEtPhe(2-Cl)][Ac5c][NMeV][NMeD]-Pyrrolidide; lactam N-11), the IC50 turned out to be 200 nM.

Take `CC[C@H](C)[C@@H]1NC(=O)[C@H](CC(C)C)N(C)C(=O)C[C@@H](C(=O)N2CCCCC2)N(C)C(=O)[C@H](C2CCCCC2)N(C)C(=O)C2(CCCC2)NC(=O)[C@H](Cc2ccc(O)c(F)c2)N(C)C(=O)[C@H](CCc2ccc(C(F)(F)F)c(Cl)c2)NC(=O)CN(C)C(=O)[C@H](CC2CCCCC2)N(C)C(=O)CN(C)C(=O)CN(C)C1=O` [Compound 2170] ([NMeL]I[Sar][Sar][NMeCha][Sar][hPhe(3-Cl-4-CF3)][NMeTyr(3-F)][Ac5c][NMeChg][NMeD]-Piperidide; lactam N-11): the IC50 amounted to 69 nM.
